In patent publication EP3731817B1, “PHARMACEUTICAL COMPOSITION OF LENALIDOMIDE PHARMACEUTICALLY ACCEPTABLE ACID ADDITION SALT” (KRKA, d.d., Novo mesto, priority 2017, dated 2019):
Structures can show the parent of a compound that is named as a salt.

Assays:
[1] = Stability testing: physical form (disproportionation) monitored by X-ray powder diffraction after storage in vials; assay type: physicochemical; settings: physical form found by XRPD after storage in vials
Method: The binary mixtures and pharmaceutical compositions were stored in vials at 40°C/75%RH for 1 month or at 50° C 75% RH for 14 days. Disproportionation effect was monitored by X-ray powder diffraction pattern.
X-ray powder diffraction patterns were obtained by a PANalytical PW3040/60 X'Pert PRO diffractometer using CuKα radiation of 1,541874.
(§1) Lenalidomide hydrochloride and the all the excipients with respect to the composition were weighed into the glass vial. Gelatine capsule were added into the vials. The vials were then closed with the stopper and gently mixed to form a homogenous mixture. The vials were subjected to the stress conditions.
as §1, with “hydrochloride in the form of monohydrate form VII” for “hydrochloride”, “vials. Vials” for “vials. The vials”
The capsules were stored in vials at 40°C/75%RH for 1 month. Physical stability of the samples was monitored by X-ray powder diffraction pattern. As evident from the results, the physical form remains the same, a disproportionation effect was not observed.

[2] = cited from earlier work

Stability testing 1 month at 40°C/75%RH [1]	SMILES	dissociation constant pKa1 ([2]; primary amine group)	pKa2 ([2]; secondary amine group)
HCl salt	Nc1cccc2c1CN(C1CCC(=O)NC1=O)C2=O (stereo not drawn) [API, Lenalidomid HCl·H2O]	–	–
–	Nc1cccc2c1CN(C1CCC(=O)NC1=O)C2=O (stereo not drawn) [lenalidomide, (3-(4' aminoisoindoline-1'-one)-1-piperidine-2,6-dione)]	2.31	11.6
